Measurements: BindingDB's records for doi:10.1021/jm970161m (Warner-Lambert, 1997)
Square brackets hold non-standard residues; d marks the D form. Peptide text beside a SMILES is read from it. NMeDip = CN[C@H](C(=O)O)C(c1ccccc1)c1ccccc1; Dip = N[C@H](C(=O)O)C(c1ccccc1)c1ccccc1; NMeI = CC[C@H](C)[C@H](NC)C(=O)O

Target: Endothelin-1 receptor (Oryctolagus cuniculus)
Test: Inhibition of binding to Endothelin A receptor of rabbit renal vascular smooth muscle cells

| IC50 [nM] | SMILES |
| --- | --- |
| 700 | CC[C@H](C)[C@H](NC(=O)[C@H]([C@@H](C)CC)N(C)C(=O)[C@H](CC(=O)O)NC(=O)[C@H](CC(C)C)NC(=O)[C@@H](NC(C)=O)C(c1ccccc1)c1ccccc1)C(=O)N[C@@H](Cc1c[nH]c2ccccc12)C(=O)O (Ac-[Dip]LD[NMeI]IW-OH) |
| 4500 | CC[C@H](C)[C@H](NC(=O)[C@H](CC(=O)O)NC(=O)[C@H](CC(C)C)NC(=O)[C@H](C(c1ccccc1)c1ccccc1)N(C)C(C)=O)C(=O)N[C@H](C(=O)N[C@@H](Cc1c[nH]c2ccccc12)C(=O)O)[C@@H](C)CC (Ac-[NMeDip]LDIIW-OH) |
